In series [1] the test system is HepG2. Kind of series: Antiproliferative activity against human HepG2 cells after 24 hrs by MTT assay. The following applies: HepG2, 24 h. Format: functional, cell-based.
For series [2], the system named is A549. Kind of series: Antiproliferative activity against human A549 cells after 24 hrs by MTT assay. Format: functional, cell-based. The following applies: A549, 24 h.
Series [3] concerns MCF7. Kind of series: Antiproliferative activity against human MCF7 cells after 24 hrs by MTT assay. Type of series: functional, cell-based. The following applies: MCF7, 24 h.
The nature of series [4]: Antiproliferative activity against human SW620 cells after 24 hrs by MTT assay. Type of series: functional, cell-based. The conditions noted are these: SW-620, 24 h. Background: Tetrazolium dyes change colour on reduction, which living cells bring about.
In series [5] the test system is HepG2. Description: Antitumor activity against human HepG2 cells xenografted with nude mouse assessed as tumor volume at 5 mg/kg, iv administered every 2 days for 31 days (reference value: 103.6 +/- 1.77 mm3). Type of series: functional.
Series [6] has as its system HepG2. Kind of series: Antitumor activity against human HepG2 cells xenografted with nude mouse assessed as tumor weight at 5 mg/kg, iv administered every 2 days for 31 days. Type of series: functional.
In series [7] the test system is HepG2. Kind of series: Cell cycle arrest in human HepG2 cells assessed as accumulation at S phase at 200 nM after 24 hrs by propidium iodide staining based flow cytometry (reference value: 39%). Format: functional. In general terms: A flow cytometer gives signals particle by particle.
The subject of series [8] is HepG2. Description: Cell cycle arrest in human HepG2 cells assessed as accumulation at G2/M phase at 200 nM after 24 hrs by propidium iodide staining based flow cytometry (reference value: 19%). Format: functional.
Series [9] deals with HepG2. Kind of series: Cell cycle arrest in human HepG2 cells assessed as accumulation at G1 phase at 500 nM after 24 hrs by propidium iodide staining based flow cytometry (reference value: 42%). Type of series: functional.
Series [10] concerns HepG2. Description: Cell cycle arrest in human HepG2 cells assessed as accumulation at S phase at 500 nM after 24 hrs by propidium iodide staining based flow cytometry (reference value: 39%). Format: functional.
Series [11] deals with HepG2. Kind of series: Cell cycle arrest in human HepG2 cells assessed as accumulation at G2/M phase at 500 nM after 24 hrs by propidium iodide staining based flow cytometry (reference value: 19%). Type of series: functional.
For series [12], the system named is HepG2. Description: Cell cycle arrest in human HepG2 cells assessed as accumulation at G2/M phase after 24 hrs by propidium iodide staining based flow cytometry (reference value: 19%). Type of series: functional.
Series [13] concerns HepG2. Description: Upregulation of cyclin B1 in human HepG2 cells at 10 to 100 nM after 24 hrs by Western blot analysis. Type of series: functional, cell-based.
The test system of series [14] is HepG2. Kind of series: Upregulation of phosphorylated histone H3 levels in human HepG2 cells at 10 to 100 nM after 24 hrs by Western blot analysis. Type of series: functional, cell-based. Background: A western blot detects proteins with antibodies after separation by electrophoresis.
The test system of series [15] is HepG2. Description: Downregulation of Cdc25C in human HepG2 cells at 10 to 100 nM after 24 hrs by Western blot analysis. Format: functional, cell-based.
Series [16] relates to HepG2. Description: Downregulation of Cdk1 in human HepG2 cells at 10 to 100 nM after 24 hrs by Western blot analysis. Type of series: functional, cell-based.
In series [17] the test system is HepG2. Description: Induction of apoptosis in human HepG2 cells assessed as upregulation of cleaved PARP levels at 0.5 uM after 48 hrs by Western blot analysis. Type of series: functional, cell-based.
Series [18] relates to HepG2. Kind of series: Induction of apoptosis in human HepG2 cells assessed as upregulation of cleaved caspase-3 levels at 0.5 uM after 48 hrs by Western blot analysis. Type of series: functional, cell-based.
For series [19], the system named is HepG2. Kind of series: Induction of apoptosis in human HepG2 cells assessed as upregulation of cleaved PARP levels after 48 hrs by Western blot analysis. Type of series: functional, cell-based.
Series [20] concerns HepG2. Kind of series: Induction of apoptosis in human HepG2 cells assessed as upregulation of cleaved caspase-3 levels after 48 hrs by Western blot analysis. Format: functional, cell-based.
Series [21] relates to HepG2. Description: Binding affinity to alpha tubulin in human HepG2 cells assessed as disruption of microtubule at 1 uM after 24 hrs by immunofluorescence staining based microscopy. Format: cell-based.
Series [22] concerns HepG2. Kind of series: Antitumor activity against human HepG2 cells xenografted with nude mouse assessed as tumor volume at 10 mg/kg, iv administered every 2 days for 31 days (reference value: 87.39 +/- 3.529 mm3). Format: functional.
The test system of series [23] is HepG2. Kind of series: Antitumor activity against human HepG2 cells xenografted with nude mouse assessed as tumor weight at 10 mg/kg, iv administered every 2 days for 31 days. Type of series: functional.
Series [24] relates to HepG2. Description: Antitumor activity against human HepG2 cells xenografted with nude mouse assessed as tumor mass change at 10 mg/kg, iv administered every 2 days for 31 days. Format: functional.
Series [25] deals with Mus musculus. Kind of series: Toxicity in nude mouse xenografted with human HepG2 cells assessed as weight loss at 10 mg/kg, iv administered every 2 days for 31 days. The conditions noted are these: in vivo. Type of series: organism-based.
For series [26], the system named is Mus musculus. Description: Toxicity in nude mouse xenografted with human HepG2 cells assessed as feeding at 10 mg/kg, iv administered every 2 days for 31 days. The conditions noted are these: in vivo. Type of series: organism-based.
In series [27] the test system is Mus musculus. Kind of series: Toxicity in nude mouse xenografted with human HepG2 cells assessed as abnormal behavior at 10 mg/kg, iv administered every 2 days for 31 days. Format: organism-based. The conditions noted are these: in vivo.
Series [28] concerns HepG2. Kind of series: Cell cycle arrest in human HepG2 cells assessed as accumulation at G1 phase at 100 nM after 24 hrs by propidium iodide staining based flow cytometry (reference value: 42%). Type of series: functional.
The test system of series [29] is HepG2. Kind of series: Cell cycle arrest in human HepG2 cells assessed as accumulation at S phase at 100 nM after 24 hrs by propidium iodide staining based flow cytometry (reference value: 39%). Type of series: functional.
Series [30] has as its system HepG2. Kind of series: Cell cycle arrest in human HepG2 cells assessed as accumulation at G2/M phase at 100 nM after 24 hrs by propidium iodide staining based flow cytometry (reference value: 19%). Type of series: functional.
In series [31] the test system is HepG2. Kind of series: Cell cycle arrest in human HepG2 cells assessed as accumulation at G1 phase at 200 nM after 24 hrs by propidium iodide staining based flow cytometry (reference value: 42%). Type of series: functional.

The values that follow come from ChEMBL document CHEMBL3785046, “Synthesis, in vitro and in vivo evaluation of novel substituted N-(4-(2-(4-benzylpiperazin-1-yl)ethoxy)phenyl)-N-methyl-quinazolin-4-amines as potent antitumor agents” (Bioorg Med Chem Lett, 2016).

Calls of active or inactive are those of the source. No cut-off for these calls is given here.

As a reminder, the IC50 is the point on the concentration scale where inhibition reaches its midpoint. The low end stands for greater potency, the high end for weaker potency. Regarding `CN(c1ccc(OCCN2CCN(Cc3ccc(F)c(F)c3)CC2)cc1)c1nc(Cl)nc2ccccc12`, the IC50 in series [1] is 1310 nM; in series [2], 1560 nM; in series [3], 2340 nM; in series [4], 892 nM.
The matching figures for `CN(c1ccc(OCCN2CCN(Cc3ccccc3Cl)CC2)cc1)c1nc(Cl)nc2ccccc12`: 650 nM, 371 nM, 1230 nM and 980 nM.
For `CN(c1ccc(OCCN2CCN(Cc3c(F)cccc3F)CC2)cc1)c1nc(Cl)nc2ccccc12`, the IC50 was found to be 1450 nM in series [1], 6350 nM in series [2], 1980 nM in series [3] and 3210 nM in series [4].
The matching figures for `Cc1nc(N(C)c2ccc(OCCN3CCN(Cc4ccc(C(C)(C)C)cc4)CC3)cc2)c2ccccc2n1`: > 10000 nM, > 10000 nM, > 10000 nM and > 10000 nM.
Take `COc1cccc2c1C(=O)c1c(O)c3c(c(O)c1C2=O)C[C@@](O)(C(=O)CO)C[C@@H]3O[C@H]1C[C@H](N)[C@H](O)[C@H](C)O1.Cl` [DOXORUBICIN HYDROCHLORIDE]: the Activity in [5] is recorded as 238.7 mm3; in [6], 0.188 g.
For `Cc1nc(N(C)c2ccc(OCCN3CCN(Cc4ccc(F)c(F)c4)CC3)cc2)c2ccccc2n1`, the IC50 is 6580 nM in series [1], > 10000 nM in series [2], 6120 nM in series [3] and 3270 nM in series [4].
Take `Cc1nc(N(C)c2ccc(OCCN3CCN(Cc4ccccc4Br)CC3)cc2)c2ccccc2n1`: the IC50 in [1] was 441 nM; in series [2], > 10000 nM; in series [3], 2160 nM; in [4], 1230 nM.
The matching figures for `Cc1nc(N(C)c2ccc(OCCN3CCN(Cc4ccccc4Cl)CC3)cc2)c2ccccc2n1`: 555 nM, 872 nM, 2320 nM and 2920 nM.
As to `Cc1nc(N(C)c2ccc(OCCN3CCN(Cc4ccccc4F)CC3)cc2)c2ccccc2n1`, the IC50 in series [1] worked out at 89 nM; in series [2], 281 nM; in [3], 690 nM; in series [4], 716 nM.
In the case of `Cc1nc(N(C)c2ccc(OCCN3CCN(Cc4ccccc4C#N)CC3)cc2)c2ccccc2n1`, the IC50 in series [1] came out at 890 nM; in [2], 5740 nM; in [3], 1010 nM; in series [4], 883 nM.
As for `CN(c1ccc(OCCN2CCN(Cc3ccccc3F)CC2)cc1)c1nc(Cl)nc2ccccc12`, the Activity in series [7] is 26%; in series [8], 44%; in series [9], 10%; in series [10], 23%; in series [11], 67%; in series [12], “Dose-dependent effect”. The Activity entry in [19] is “Dose-dependent effect”; in series [20] it was “Dose-dependent effect”; in series [22], 259.78 mm3; in series [23], 0.217 g; in [24] it was 78.69%; in series [25], “Non-toxic”. Further, the Activity entry in series [26] is “Non-toxic”; in [27], “Non-toxic”; in [28], 38%; in series [29], 37%; in series [30], 25%; in [31] it was 30%. Moreover, the result in series [13], in series [14], in [15], in series [16], in series [17] and in series [18] was Active. Besides, the result in series [21] was Active. For the same compound, the IC50 in series [1] turned out to be 29 nM; in [2], 147 nM; in [3] it was 99 nM; in series [4] it was 52 nM.
Take `CN(c1ccc(OCCN2CCN(Cc3ccc(C(C)(C)C)cc3)CC2)cc1)c1nc(Cl)nc2ccccc12`: the IC50 in series [1], in [2], in series [3] and in [4] was > 10000 nM in each case.
